Experimental data as given in patent publication US8715677B2, “Immunological uses of immunomodulatory compounds for vaccine and anti-infectious disease therapy” (Celgene Corporation, priority 2005, dated 2014).

What was measured:
Type in all cases: cell-based
regulatory T cells = test: Treg suppression of anti-CD3 mAb activated CD4+CD25- cell proliferation; conditions: for suppressive function of Treg on anti-CD3 mAb activated CD4+CD25- cells: pre-incubation of Treg with compound
Experimental: An assay in which the ability of isolated Treg to suppress anti-CD3 mAb activated CD4+CD25− cells was performed.
Regulatory T cells were isolated by the Dynal T regulatory cell isolation kit, and treated for 24 hours with varying concentrations of an immunomodulatory compound (Actimid™ or lenalidomide) or DMSO. The cells were washed and incubated at a 1:2 ratio with CD25^−CD4^+ cells, which were also isolated by the Dynal T regulatory cell isolation kit. Results were expressed as the mean % change in proliferation compared to the cpms obtained from DMSO treated CD25^+ cells incubated with CD25^− cells.

Gab2 = Gab2 phosphorylation in anti-CD3/CD28 stimulated Jurkat T cells; conditions: at about 1 μM, dose-dependent
From the text: The Gab proteins, including Gab1, Gab2 and Gab3 comprise a growing family of phospho-tyrosine regulated scaffolding molecules involved in RTK signal transduction. Phosphorylation of Gab1 in B cells is associated with P13-kinase activity and cell proliferation. While Gab1 is expressed in B cells, only Gab2 is expressed in T cells. Although Gab2 is tyrosine phosphorylated upon TCR activation by ZAP-70, it functions as a negative regulator of TCR signaling via a Shp-2 dependent mechanism. Overexpression of Gab2 in T cells results in the inhibition of IL-2 production (Yamasaki et al., J. Biol. Chem., 2001). The effect of lenalidomide on Gab2 phosphorylation and activation in anti-CD3/CD28 stimulated Jurkat T cells was examined. Lenalidomide inhibited Gab2 phosphorylation dose-dependently (with approximately 50% inhibition at about 1 μM) in a manner that correlated with T cell costimulation and enhancement of IL-2 production.

Raji cells = test: Direct effects on NHL tumor cells, alone or with anti CD20 antibodies; conditions: for effect in combination with anti CD20 antibody B1: 10 μM / up to 10 μM
Experimental: Direct effects of IMiDs on NHL tumor cells were tested by treating Raji cells with IMiDs alone, or in combination with anti CD20 antibodies B1 or rituxan. IMiD 1 alone caused up to 40% inhibition of proliferation at 10 μM in Raji cells, which corresponded to G1 arrest.

γδ T cells [1] = test: IFN-γ production by γδ T cells in co-culture with tumor cells; conditions: co-culture with RPMI-8226 MM cells, with or without pamidronate; FIG. 8
Experimental: Tumor cells pre-incubated with (FIG. 8B) or without (FIG. 8A) pamidronate were incubated with δγ T cells at different tumor (RPMI-8226 MM) to γδ T cells ratios as indicated in FIG. 8. Some of the cells were further treated by Actimid™. Intracellular IFN-gamma production was measured by flow cytometry.

γδ T cells [2] = test: Cytokine production by γδ T cells
Experimental: Purified γδ T cells were stimulated with IPP±IMiDs ([…]) or with the MM cell line RPMI-8226 (±IMiDs ([…])) in 24 well plates and were incubated 8-72 hours. Cell-free supernatants were collected and stored at −70° C. until assayed by ELISA. IFN-γ, TNF-α and IL-2 were measured by ELISA (BD pharmingen). For fresh δγ preps, PBMCs were stimulated with plate bound anti-CD3 (1.25 μg/ml) for 48 hours and the expression of TNF-α, IFNγ, IL-2 and IL-4 were measured by intracellular FACS on cells stained for γδ TCR.
The effects of Actimid™ on IFN-γ, TNF-α, and IL-4 were examined in freshly prepared γδ T cells and γδ T cell lines stimulated with IPP.

RPMI-8226 MM cell lines = test: Cytotoxicity of γδ T cells, chromium release assay
Experimental: Gamma delta T cells were treated with a single dose of 25 μM IPP and weekly with 150 U/ml of IL-2 for 3 weeks and 1 day. RPMI-8226 target cells were incubated overnight with 50 μM pamidronate then treated with 3MBq 51Cr. Target, and effector cells were incubated at different ratios and chromium release was assayed after 4 hours. To determine the effects of Actimid™, the compound was either included in the 22 day preincubation before the assay and in the chromium release step, or was included during the chromium release assay.
Gamma delta cells were treated with a single dose of 25 μM IPP and weekly with 150 U/ml of IL-2 for 22 days. RPMI-8226 target cells were incubated overnight with 50 μM pamidronate, then treated with 3 MBq 51 Cr. Target and effector cells were incubated at various ratios with fresh Actimid™ and chromium release assayed after 4 hours. Actimid™ was also added to some wells for the 22 day pretreatment with IL-2 and IPP (FIG. 9A) or just for the 4 hr chromium release assay (FIG. 9B).

γδ T cells [3] = test: Apoptosis of γδ T cells (annexin V PE / 7-AAD); conditions: with or without IPP; FIG. 6
Experimental: Gamma delta T cells were treated with a single dose of 25 μM IPP and weekly with 150 U/ml of IL-2 for 4 weeks and 3 days. Cells were then either left untreated or treated with Actimid™, IPP or Actimid™ and IPP. Apoptosis was assessed by staining of cells with annexin V PE and 7-AAD at various time points and analysis using a FACSCalibur.
Gamma delta T cells were treated with a single dose of 25 μM IPP and weekly with 150 U/ml of IL-2 for 31 days. Cells were then either left untreated or treated with Actimid™, IPP, or Actimid™ and IPP in combination. Apoptosis was assessed by staining of cells with annexin V PE and 7-AAD at the stated time points and analysis using a FACSCalibur. Annexin V PE negative/7-AAD negative cells are designated live, annexin V PE positive/7-AAD negative early apoptotic, annexin V PE positive/7-AAD positive late apoptotic and annexin V PE negative/7-AAD positive dead.

[4] = test system: Rituximab-resistant cell line 4RH; test: Rituximab-mediated ADCC by primed PBMC, 51Cr release, 4RH cells
Experimental: (§1) Rituximab-resistant cell lines (RRCL) were generated by chronic exposure of Raji cells to escalating doses of rituximab alone (2R) or along with human complement (4RH). […] To study the effects of lenalidomide-priming of PBMC's against RRCL, peripheral blood mononuclear cells from healthy donors were cultured with either DMSO or lenalidomide (at final concentrations of 10 or 20 μg/ml), with or without IL-2 (20 IU/ml), over a 5-day period at 37° C., 5% CO2. Parentral Raji, and RRCL (2R and 4RH) were labeled with ^51Cr and exposed to either rituximab or trastuzumab (Isotype control at 20 μg/ml) in the presence of an IMiD or control stimulated-PBMCs (Effector:Target ratio of 40:1). ^51Cr release was measured and the percentage of lysis was calculated. Statistical differences were analyzed by chi-square test.

[5] = test system: Rituximab-resistant cell line 2R; test: Rituximab-mediated ADCC by primed PBMC, 51Cr release, 2R cells; conditions: E:T 40:1
Experimental: as §1

Foxp3 = Foxp3 expression in CD4+CD25+ cells (intracellular staining); conditions: CD4+CD25+ cells incubated 24 hours; FIG. 3
Experimental: CD4^+CD25^+ cells were incubated for 24 hours with varying concentrations of DMSO, Actimid™, lenalidomide, or thalidomide and then washed twice with RPMI medium. Cells were stained with CD152-PE, CD4-PERCP, and CD25-APC. Intracellular Foxp3 staining and CD152 staining were carried out after permeabilizing the CD4^+ CD25^+ cells. Results were expressed as percentage of expression of Foxp3 in the CD4^+CD25^+ population or the CD4^+CD25^− population.

[6] = TCR γδ cells within freshly prepared PBMC population

Compound: Nc1cccc2c1CN(C1CCC(=O)NC1=O)C2=O (centres unmarked) [lenalidomide, 3-(4-amino-1-oxo-1,3-dihydro-isoindol-2-yl)-piperidine-2,6-dione]
- suppressive function of Treg on anti-CD3 mAb activated CD4+CD25- cells (regulatory T cells): inhibits the suppressive function
- inhibition of Gab2 phosphorylation (Gab2): approximately 50%
- effect in combination with anti CD20 antibody B1 (Raji cells): minimal

Compound: Nc1cccc2c1C(=O)N(C1CCC(=O)NC1=O)C2=O (centres unmarked) [Actimid, 4-(amino)-2-(2,6-dioxo(3-piperidyl))-isoindoline-1,3-dione]
- suppressive function of Treg on anti-CD3 mAb activated CD4+CD25- cells (regulatory T cells): inhibits the suppressive function
- IFN-γ production by γδ T cells (γδ T cells [1]): augmented
- effect in combination with rituxan (Raji cells; 10 μM): slight additive effect
- effect in combination with anti CD20 antibody B1 (Raji cells): small additive effect
- production of IFN-γ (γδ T cells [2]; [6]): enhanced
- production of TNF-α (γδ T cells [2]; [6]): enhanced
- production of IFN-γ (γδ T cells [2]; γδ T cells stimulated with IPP): enhanced
- production of IL-4 (γδ T cells [2]; γδ T cells stimulated with IPP): not
- cytotoxicity of γδ T cells toward RPMI-8226 MM cell lines (RPMI-8226 MM cell lines; compound added during the 4 hr chromium release assay only, FIG. 9B): enhanced
- cytotoxicity of γδ T cells toward RPMI-8226 MM cell lines (RPMI-8226 MM cell lines; compound added during the 22 day pretreatment, FIG. 9A): enhanced
- apoptosis in γδ T cells (γδ T cells [3]): protection against apotosis

Compound: Nc1cccc2c1CN(C1CCC(=O)NC1=O)C2=O (centres unmarked) [IMiD]
- mean % of lysis by ADCC ([4]; IMiD exposed PBMC): 26.5+/−1.83%
- mean % of lysis by ADCC ([4]; combination IMiD/IL-2 exposed PBMC): 38.4+/−4.1%
- rituximab-mediated ADCC, mean % lysis ([5]; PBMC exposed to IMiD for 5 days): 26.9+/−1.18%
- rituximab-mediated ADCC, mean % lysis ([5]; PBMC exposed to IMiD+IL-2 for 5 days): 38.4+/−4.14%

Compound: O=C1CCC(N2C(=O)c3ccccc3C2=O)C(=O)N1 (centres unmarked) [thalidomide, reference compound]
- proliferation of CD25- cells in the presence of CD25+CD4+ cells, compared to DMSO treated CD4+CD25+ cells (regulatory T cells; Treg treated 24 hours, washed, 1:2 ratio with CD25-CD4+ cells, FIG. 2): little effect
- Foxp3 expression (Foxp3): little effects
